Here are results for 1 molecule from publication PMC8400806, “Discovery of Amide-Functionalized Benzimidazolium Salts as Potent α-Glucosidase Inhibitors” (Molecules, 2021).

One data set addresses T1, α-glucosidase enzyme (Saccharomyces cerevisiae, UniProt P53341).
T1 construct: purchased Sigma-Aldrich, Munich, Germany
Briefly: biochemical. Type of data set: biochemical. The procedure:
The solution of the α-glucosidase enzyme (obtained from Saccharomyces cerevisiae (Sigma-Aldrich, Munich, Germany)) was prepared in phosphate buffer (pH 6.8, 100 mM). The synthesized compounds were dissolved in dimethyl sulfoxide (DMSO). […] Afterwards, 40 μL of 5 mM p-nitrophenyl-α-D-glucopyranoside (Sigma-Aldrich, Munich, Germany) was poured into each well and further incubated for an additional half-hour. […] Acarbose (Sigma-Aldrich, Munich, Germany) and DMSO were used as reference inhibitors and negative control, respectively. The tests were conducted in triplicate and percent inhibitions were calculated using the following formula: % Inhibition = [(A control − A sample)/A control] × 100 where ‘A’ stands for absorbance.
The IC50 values of the synthesized compounds and acarbose were also determined.

T1 sequence (P53341 whole entry): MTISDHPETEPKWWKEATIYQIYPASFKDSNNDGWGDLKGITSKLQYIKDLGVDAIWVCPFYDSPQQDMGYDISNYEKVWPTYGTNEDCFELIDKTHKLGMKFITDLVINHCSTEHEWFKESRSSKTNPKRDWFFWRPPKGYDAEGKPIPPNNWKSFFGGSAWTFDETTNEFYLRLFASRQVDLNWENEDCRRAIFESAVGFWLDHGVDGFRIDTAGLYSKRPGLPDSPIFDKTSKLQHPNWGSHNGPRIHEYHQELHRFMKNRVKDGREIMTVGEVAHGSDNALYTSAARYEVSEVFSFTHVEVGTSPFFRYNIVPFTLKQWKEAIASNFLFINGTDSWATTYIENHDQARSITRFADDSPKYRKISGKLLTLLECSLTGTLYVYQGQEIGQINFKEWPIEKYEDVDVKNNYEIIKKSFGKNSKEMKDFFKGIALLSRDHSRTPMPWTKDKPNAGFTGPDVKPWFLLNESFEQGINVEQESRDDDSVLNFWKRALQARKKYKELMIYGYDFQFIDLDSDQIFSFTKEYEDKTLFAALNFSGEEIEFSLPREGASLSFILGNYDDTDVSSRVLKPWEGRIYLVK

In turn, `COc1ccc(NC(=O)C[n+]2cn(Cc3ccccc3)c3ccccc32)cc1.[Br-]` [Compound 9m, 1-Benzyl-3-[2-{(4-methoxyphenyl)amino}-2-oxoethyl]-1H-benzo[d]imidazol-3-ium bromide] showed a melting point of 171 to 173 °C. This molecule also displayed an IC50 against α-glucosidase enzyme of 279.28 ± 0.03 µM. For the same molecule, the “α-glucosidase inhibitory activity, in words” value on α-glucosidase enzyme (verbal rating in the SAR discussion) was “lowest α-glucosidase inhibitory results in their respective series”.

The IC50 is the point on the concentration scale where inhibition reaches its midpoint. Broadly, the melting point is the temperature of the solid-liquid transition.
